17 compounds from US10479784B2, “Substituted pyrazin-2-amines as inhibitors of ATR kinase” (Vertex Pharmaceuticals Incorporated, priority 2008, dated 2019) can be followed below.

The target of the assay is full-length ATR (Homo sapiens (Human), UniProt Q13535). Briefly: ATR Inhibition Assay (radioactive-phosphate incorporation). Format: biochemical. The conditions noted are these: read-out: ATR Ki. Summed up: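 Ki(app) was derived by non-linear regression of background-corrected initial rates of 33P incorporation into an 800 μM target peptide, read by phosphocellulose filter scintillation counting. Reaction conditions: 5 nM full-length ATR, 10 μM [γ-33P]ATP, pH 7.5 Tris buffer with MgCl2 and DTT, 25 °C, 10-min preincubation, 24 h run.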
Sequence of full-length ATR (Q13535 whole entry): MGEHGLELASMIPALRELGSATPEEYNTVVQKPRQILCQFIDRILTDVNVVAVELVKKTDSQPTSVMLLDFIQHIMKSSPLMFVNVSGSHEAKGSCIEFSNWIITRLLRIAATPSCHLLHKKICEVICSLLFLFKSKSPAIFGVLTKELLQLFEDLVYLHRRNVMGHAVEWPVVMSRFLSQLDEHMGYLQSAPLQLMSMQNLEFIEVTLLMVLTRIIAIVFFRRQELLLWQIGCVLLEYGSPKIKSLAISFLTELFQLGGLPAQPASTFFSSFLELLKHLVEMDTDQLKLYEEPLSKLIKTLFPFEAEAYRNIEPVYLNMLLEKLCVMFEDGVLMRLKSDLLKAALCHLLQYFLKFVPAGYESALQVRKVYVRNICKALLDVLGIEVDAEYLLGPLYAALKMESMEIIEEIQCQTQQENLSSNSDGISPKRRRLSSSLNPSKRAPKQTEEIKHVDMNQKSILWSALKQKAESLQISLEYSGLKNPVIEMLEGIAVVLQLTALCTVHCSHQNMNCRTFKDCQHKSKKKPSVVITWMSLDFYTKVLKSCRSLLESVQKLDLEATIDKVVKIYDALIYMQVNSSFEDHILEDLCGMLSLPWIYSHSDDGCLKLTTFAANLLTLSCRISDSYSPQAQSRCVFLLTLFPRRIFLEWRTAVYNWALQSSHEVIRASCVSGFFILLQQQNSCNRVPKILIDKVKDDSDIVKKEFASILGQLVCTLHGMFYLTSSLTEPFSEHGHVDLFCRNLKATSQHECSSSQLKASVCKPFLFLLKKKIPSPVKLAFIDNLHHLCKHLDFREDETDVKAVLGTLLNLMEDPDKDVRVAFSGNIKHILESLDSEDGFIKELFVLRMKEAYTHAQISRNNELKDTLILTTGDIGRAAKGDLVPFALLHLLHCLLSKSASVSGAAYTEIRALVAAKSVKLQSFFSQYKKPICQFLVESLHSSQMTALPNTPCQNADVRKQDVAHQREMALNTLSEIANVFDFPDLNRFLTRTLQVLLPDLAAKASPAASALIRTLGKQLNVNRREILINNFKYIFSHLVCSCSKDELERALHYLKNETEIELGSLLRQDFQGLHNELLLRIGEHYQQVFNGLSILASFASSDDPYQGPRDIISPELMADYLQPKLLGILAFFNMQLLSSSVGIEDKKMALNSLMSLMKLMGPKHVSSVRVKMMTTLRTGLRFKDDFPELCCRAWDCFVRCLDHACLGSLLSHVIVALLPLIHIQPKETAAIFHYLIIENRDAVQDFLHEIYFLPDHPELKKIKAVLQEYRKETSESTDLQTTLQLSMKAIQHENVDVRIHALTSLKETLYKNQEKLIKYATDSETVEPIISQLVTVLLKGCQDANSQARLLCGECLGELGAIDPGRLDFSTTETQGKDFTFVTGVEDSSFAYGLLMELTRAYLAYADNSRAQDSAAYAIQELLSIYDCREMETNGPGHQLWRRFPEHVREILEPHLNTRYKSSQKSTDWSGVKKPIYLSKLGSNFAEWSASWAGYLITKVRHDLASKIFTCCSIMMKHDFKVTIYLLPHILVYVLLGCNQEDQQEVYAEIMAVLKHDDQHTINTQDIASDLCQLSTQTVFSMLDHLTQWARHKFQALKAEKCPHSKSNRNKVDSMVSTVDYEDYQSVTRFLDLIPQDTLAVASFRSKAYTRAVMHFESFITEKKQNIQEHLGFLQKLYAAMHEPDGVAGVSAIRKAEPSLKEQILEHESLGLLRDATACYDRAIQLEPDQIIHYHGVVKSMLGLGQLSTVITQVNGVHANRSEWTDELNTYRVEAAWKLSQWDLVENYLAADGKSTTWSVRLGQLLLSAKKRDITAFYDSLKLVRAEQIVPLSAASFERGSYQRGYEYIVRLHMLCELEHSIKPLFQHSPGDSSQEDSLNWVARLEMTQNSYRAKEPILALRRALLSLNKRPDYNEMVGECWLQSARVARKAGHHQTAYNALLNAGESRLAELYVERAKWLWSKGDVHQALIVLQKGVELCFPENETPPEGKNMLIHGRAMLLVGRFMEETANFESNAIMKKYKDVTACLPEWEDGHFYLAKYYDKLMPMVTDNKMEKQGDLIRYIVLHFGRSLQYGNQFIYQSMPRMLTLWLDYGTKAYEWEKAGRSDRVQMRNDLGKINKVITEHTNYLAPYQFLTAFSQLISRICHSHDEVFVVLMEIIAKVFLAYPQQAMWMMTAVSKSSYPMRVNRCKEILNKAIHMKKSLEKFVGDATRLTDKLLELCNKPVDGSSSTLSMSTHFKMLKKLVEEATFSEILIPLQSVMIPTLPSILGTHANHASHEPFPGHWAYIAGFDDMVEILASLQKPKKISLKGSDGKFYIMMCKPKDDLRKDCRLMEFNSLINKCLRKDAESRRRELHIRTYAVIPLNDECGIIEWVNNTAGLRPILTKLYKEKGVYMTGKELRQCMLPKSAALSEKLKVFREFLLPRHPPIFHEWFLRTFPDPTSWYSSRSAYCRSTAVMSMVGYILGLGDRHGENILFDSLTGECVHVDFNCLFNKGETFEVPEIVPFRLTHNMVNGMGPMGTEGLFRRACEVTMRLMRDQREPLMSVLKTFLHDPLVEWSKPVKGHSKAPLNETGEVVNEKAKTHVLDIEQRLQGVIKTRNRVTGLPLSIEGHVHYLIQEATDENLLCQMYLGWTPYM

The Ki is a dissociation constant, usually derived from enzyme kinetics or from competition with a known ligand. On to `CC(C)S(=O)(=O)c1ccc(-c2cnc(N)c(-c3nnc(N4CC(N)C4)o3)n2)cc1` [IA-111, 3-[5-(3-aminoazetidin-1-yl)-1,3,4-oxadiazol-2-yl]-5-(4-isopropylsulfonylphenyl)pyrazin-2-amine], for which the inhibition constant (Ki) was 100 to 5000 nM.

Turning to `N#CCc1ccccc1-c1cnc(N)c(-c2nnc(-c3ccccc3)o2)n1` [IA-221, 2-[2-[5-amino-6-(5-phenyl-1,3,4-oxadiazol-2-yl)pyrazin-2-yl]phenyl]acetonitrile], the Ki was in the range of 100 to 5000 nM.

Turning to `CCc1cc(-c2cnc(N)c(-c3nnc(-c4ccc(CNC)cc4)o3)n2)ccc1S(=O)(=O)C(C)C` [IA-326, 5-(3-ethyl-4-isopropylsulfonyl-phenyl)-3-[5-[4-(methylaminomethyl)phenyl]-1,3,4-oxadiazol-2-yl]pyrazin-2-amine], the inhibition constant (Ki) is ≤ 10 nM.

With `CNCc1ccc(-c2nnc(-c3nc(-c4ccc(S(=O)(=O)C(C)C)cc4F)cnc3N)o2)cc1` [IA-292, 5-(2-fluoro-4-isopropylsulfonyl-phenyl)-3-[5-[4-(methylaminomethyl)phenyl]-1,3,4-oxadiazol-2-yl]pyrazin-2-amine], the inhibitory constant (Ki) was ≤ 10 nM.

`CC(C)S(=O)(=O)c1ccc(-c2cnc(N)c(-c3nnc(NC(=O)CN)o3)n2)cc1` [IA-82, 2-amino-N-[5-[3-amino-6-(4-isopropylsulfonylphenyl)pyrazin-2-yl]-1,3,4-oxadiazol-2-yl]acetamide]: the inhibition constant Ki lay within 100 to 5000 nM.

For the compound `Nc1ncc(-c2ccc(C(=O)NC3CCOCC3)cc2)nc1C(=O)Nc1ccccc1` [Compound I-47, 3-amino-N-phenyl-6-(4-(tetrahydro-2H-pyran-4-ylcarbamoyl)phenyl)pyrazine-2-carboxamide], the Ki is 10 to 100 nM.

As for `CNCc1ccc(-c2nnc(-c3nc(-c4ccc(S(=O)(=O)C(C)C)cc4)cnc3N)o2)c(F)c1` [IA-130, 3-[5-[2-fluoro-4-(methylaminomethyl)phenyl]-1,3,4-oxadiazol-2-yl]-5-(4-isopropylsulfonylphenyl)pyrazin-2-amine], the Ki was ≤ 10 nM.

Consider `Nc1ncc(-c2ccco2)nc1C(=O)Nc1ccccc1` [Compound I-41, 3-amino-6-(furan-2-yl)-N-phenylpyrazine-2-carboxamide], for which the Ki is 100 to 5000 nM.

Take `CNCc1ccc(-c2nnc(-c3nc(-c4ccc(S(=O)(=O)C(C)C)cc4)cnc3N)o2)c(Cl)c1` [IA-306, 3-[5-[2-chloro-4-(methylaminomethyl)phenyl]-1,3,4-oxadiazol-2-yl]-5-(4-isopropylsulfonylphenyl)pyrazin-2-amine]: the inhibition constant Ki is ≤ 10 nM.

Regarding `CCCS(=O)(=O)c1ccc(-c2cnc(N)c(-c3nnc(-c4ccc(CNC)cc4)o3)n2)cc1` [IA-310, 3-[5-[4-(methylaminomethyl)phenyl]-1,3,4-oxadiazol-2-yl]-5-(4-propylsulfonylphenyl)pyrazin-2-amine], the Ki was ≤ 10 nM.

For the compound `Nc1ncc(-c2ccccc2)nc1C(=O)Nc1ccccc1` [Compound I-15, 3-amino-N,6-diphenylpyrazine-2-carboxamide], the inhibitory constant (Ki) was 100 to 5000 nM.

In the case of `COc1ccccc1NC(=O)c1nc(-c2cccnc2)cnc1N` [Compound I-106, 3-amino-N-(2-methoxyphenyl)-6-(pyridin-3-yl)pyrazine-2-carboxamide], the inhibition constant (Ki) was in the range of 10 to 100 nM.

Regarding `CNCc1cccc(-c2nnc(-c3nc(-c4ccc(S(=O)(=O)C(C)C)cc4)cnc3N)o2)c1` [IA-146, 5-(4-isopropylsulfonylphenyl)-3-[5-[3-(methylaminomethyl)phenyl]-1,3,4-oxadiazol-2-yl]pyrazin-2-amine], the inhibition constant (Ki) was ≤ 10 nM.

Turning to `Nc1ncc(-c2cccc3[nH]ccc23)nc1-c1nnc(-c2ccccc2)o1` [IA-59], the Ki is 10 to 100 nM.

For `CNCc1ccc(-c2nnc(-c3nc(-c4ccc(S(=O)(=O)C(C)CN(C)C)cc4)cnc3N)o2)cc1` (centres unmarked) [IA-324, 5-[4-[2-(dimethylamino)-1-methyl-ethyl]sulfonylphenyl]-3-[5-[4-(methylaminomethyl)phenyl]-1,3,4-oxadiazol-2-yl]pyrazin-2-amine], the inhibitory constant (Ki) is ≤ 10 nM.

Turning to `Nc1ncc(-c2ccsc2)nc1-c1nnc(-c2ccccc2)o1` [IA-104, 3-(5-phenyl-1,3,4-oxadiazol-2-yl)-5-(3-thienyl)pyrazin-2-amine], the Ki was 10 to 100 nM.

For the compound `CN(C)C(=O)c1ccc(-c2cnc(N)c(-c3nnc(-c4ccccc4OCCO)o3)n2)cc1` [IA-196, 4-[5-amino-6-[5-[2-(2-hydroxyethoxy)phenyl]-1,3,4-oxadiazol-2-yl]pyrazin-2-yl]-N,N-dimethyl-benzamide], the Ki is ≤ 10 nM.
